Experimental data reported in patent US12391962B2, “Targeting peptide to deliver a compound to oocytes” (THE PENN STATE RESEARCH FOUNDATION, priority 2017, dated 2025).

How the values were obtained:
[1] = test system: B. tabaci ovaries; assay: Validation of the BtKV ovary targeting ligand (epifluorescence of dissected ovaries); type: in vivo, Bemisia tabaci; settings: ovaries dissected 24 hours post-injection; vs PBS-injected controls
Description: For initial experiments B. tabaci adults of unknown age and mating status were aspirated from the colony cage into 2-dram screw cap vials, placed in ice to anesthetize the insects, sexed, and transferred to a standard plain glass slide with double-sided tape on a chill table. For later experiments we established a synchronous colony so that we could control for the age of injected insects (see below). For localization of BtKV fusion protein into the embryos, female B. tabaci were injected in the abdomen with BtKV-mCherry fusion protein (3 mg/ml) or PBS control using quartz capillary needles. Samples were collected 24 hours post injection and ovaries dissected onto a concavity microscope slide with a glass coverslip and imaged by epifluorescence microscopy.
We therefore designed a new targeting peptide suitable for this insect species based on its endogenous vitellogenin protein (“BtKV”; […] (SEQ ID NO: 30)) (see methods). B. tabaci oocyte development is asynchronous with stage I, II, III, and IV at 11 days post eclosion or older^19 where oocytes are always developing. Developmental phase II oocytes have the highest amount of vitellogenin uptake via endocytosis and nutrient cord^19. After injection of BtKV-mCherry into reproductive adult B. tabaci females, ovaries were dissected after 24 hours and visualized for red fluorescence.

[2] = test system: B. tabaci white gene; assay: Knockout of the B. tabaci white gene by ReMOT Control (adult female injection); type: in vivo, Bemisia tabaci; settings: BtKV as the targeting peptide
Description: The females were injected and placed on a piece of soybean leaflet in a petri dish with a moist paper towel wrapped around the stem and another paper towel on the bottom plate to prolong the life of the leaflet. Water and liquid fertilizer were added as needed. Females were removed from the leaflet 2 weeks post injection. The petri dishes were incubated at 28° C., 16L/8D cycle, in a humidified Heratherm IMH750-S reach-in chamber, and the progeny of injected females screened visually for altered eye color in nymphs or adults using an Olympus SZX7 stereomicroscope. Mutations in insects showing altered eye color were confirmed by PCR using PHIRE Tissue Direct PCR Master Mix (Thermo Fischer Scientific), the amplicon was cloned into pJET1.2, and clones were submitted for Sanger sequencing.
For proof of principle gene editing experiments, we chose the white gene, which is an ABC transporter protein responsible for transport of ommochrome pigments into the eyes.

KPYGVYKTMEDSV (listed as Bemisia tabaci) [BtKV]
fluorescent cargo in oocytes [1]: visible in dissected mature oocytes | independent replicate injection experiments from which white-eye nymphal offspring were recovered [2]: 7 of 14
